According to patent US7339023B2, “Partial peptide mimetics and methods” (Regents of the University of Minnesota, priority 2002, dated 2008):

What was measured:
[1] = system: MA148 human ovarian carcinoma tumors; test: Immunohistochemistry of tumor sections (CD31 microvessel density, PCNA proliferation, TUNEL apoptosis); assay type: in vivo, mice; details: for Vessel density relative to control: anti-CD31 staining of tumor cross-sections; for End Points (mean number of vessel end points) / Branch Points (mean number of vessel branch points/nodes per image) / Proliferation (PCNA-staining, white pixels per field) / Vessel Density (CD31-staining, white pixels per field) / Vessel Length (mean total vessel length per image): tumors of treated mice, ± standard error; for End Points (mean number of vessel end points): after skeletonization
Method: Immunohistochemistry was used to assess microvessel density and the extent of total cell apoptosis. Tumor tissue was embedded in tissue freezing medium (Miles Inc, Elkart, Ind.) and shock frozen in liquid nitrogen. […] sections of tissue were prepared for immunohistochemical analysis. For this, tissue sections were brought to room temperature, air dried overnight, and then fixed in acetone for 10 minutes. Slides were allowed to air dry for at least 30 minutes and were washed three times for 5 minutes each in phosphate-buffered saline (PBS, pH 7.4). Samples were then blocked with PBS containing 0.1% bovine serum albumin and 3% human serum albumin for at least 30 minutes at room temperature in a humidified box. Samples were subsequently incubated with phycoerytrin (PE)-conjugated monoclonal antibody to CD31 (PECAM-1) in a 1:50 dilution (Pharmigen, San Diego, Calif.) to stain for microvessel density. After 1-hour incubation at room temperature, slides were washed with PBS and immediately imaged using an Olympus BX-60 fluorescence microscope at 200× magnification.
To assess the extent of total cell apoptosis, tissue sections were stained by using the TUNEL (terminal deoxyribonucleotidyl transferase-mediated dUTP-nick-end labeling) assay, which was performed according to the manufacturer's instructions (in situ cell death detection kit, fluorescein; TUNEL, Roche). Digital images were stored and processed using Adobe Photoshop (Adobe Inc., Mountain View Calif.).
Quantification of microvessel density, the rate of proliferation and total cell apoptosis were determined as described earlier (R. Wild et al., Microvasc. Res., 59, 368-376 (2000)). Statistical analysis was performed using the Student's t test.

bovine EC (BCE) = test: In vitro angiogenesis assay, collagen gel-based sprout formation; assay type: cell-based; parameters: key to % Sprouting: —: No effect on the assay; details: for % Sprouting: BCE on cytodex-3 beads in collagen gel, 20 ng/mL bFGF, 24 hours, * = significant inhibition (p < 0.03); for Sprouting in collagen gel-based sprout formation assay: versus control showing numerous sprouts, data not shown
Method: Sprouting and tube formation of bovine EC (BCE) were studied using cytodex-3 beads overgrown with BCE in a 3-dimensional collagen gel (vitrogen-100, Collagen Corp., Fremont, Calif., USA) as described in D. Van der Schaft et al., Blood, 96,176-181 (2000). Following gelation, culture medium containing 20 ng/mL bFGF, with or without […] or DBF analogs, was applied on top of the gel. After 24 hours of cell culture at 37° C., photographs were made (not shown). The amount of sprouting in each well (i.e., the total length of the sprouts) was quantified by the computer program NIH image. To quantify differences in sprouting and tube formation, statistical analysis was performed using the Mann-Whitney U test.

[2] = system: MA148 human ovarian carcinoma; test: MA148 xenograft ovarian carcinoma tumor model in athymic mice, tumor volume; details: for Inhibition of tumor growth ten days post-treatment: at sacrifice
Method: In all studies, female athymic nude mice (nu/nu, 5-6 weeks old) were used. These mice were purchased from the National Cancer Institute and allowed to acclimatize to local conditions for at least one week. Animals were given water and standard chow ad libitum, and were kept on a 12-hour light/dark cycle. […] Compounds were diluted in 100 mM SDS and administered using osmotic mini-pumps (Durect, Cupertino, Calif.). Exponentially growing MA148 human ovarian carcinoma cells, kindly provided by Prof. Ramakrishnan (R. P. Dings et al., Cancer Res., 63, 382-385 (2003)) were cultured in RPMI 1640 medium (Life Technologies, Grand Island, N.Y.). This medium was supplemented with 10% fetal bovine serum and 1% penicillin/streptomycin (Cellgro, Mediatech, Washington, D.C.) at 37° C. and 5% CO2. One hundred microliters (100 μL) of this tumor cell suspension (2×10^7 cells/ml) was then injected subcutaneously into the right flank of each mouse. Pumps were implanted into the left flank of mice for subcutaneous administration of compound over a 28-day treatment span.
Two variants of this model were used: prevention and intervention. For the prevention variant, treatment was initiated at the time of inoculation with MA148 cells. For the intervention variant, tumors were allowed to grow to an average size of 50 mm^3 (usually day 7 post inoculation) before treatment was initiated. With either variant, animals were randomized prior to the initiation of treatment. Treatment was administered via osmotic mini-pumps (Durect, Cupertino, Calif.), which were implanted subcutaneously in the left flank of mice. […] In each study, control groups of animals were administered either PBS or PBS containing human serum albumin.
Tumor volume was determined by measuring the diameters of tumors using calipers (Scienceware, Pequannock, N.J.) using the equation for the volume of a spheroid: (a^2×b×π)/6, where ‘a’ is the width and ‘b’ the length of the tumor. Measurements were performed two or three times per week. At the conclusion of an experiment, tumor weights were also taken following excision of the tumors from euthanized animals.

[3] = system: bFGF-stimulated human umbilical vascular EC (HUVEC); test: EC proliferation measurement, [3H]-thymidine incorporation assay; assay type: cell-based; details: for EC Proliferation % Inhibition at 25 μM: bFGF-stimulated HUVEC; for IC50: bFGF-stimulated (10 ng/ml) HUVEC, 3H-thymidine incorporation, 3 days
Method: Human umbilical vein derived EC (HUVEC) were harvested from normal human umbilical cords by perfusion with 0.125% trypsin/EDTA. Harvested HUVECs were cultured in gelatin coated tissue culture flasks and subcultured 1:3 once a week in culture medium (RPMI-1640 with 20% human serum (HS), supplemented with 2 mM glutamine and 100 U/ml penicillin and 0.1 mg/ml streptomycin). Bovine capillary EC (BCE) were kindly provided by Dr. M. Furie (State University of New York, Stony Brook, USA) and were cultured in fibronectin coated tissue culture flasks in RPMI-1640 medium containing 10% FCS, glutamine and antibiotics.
EC proliferation was measured using a [^3H]-thymidine incorporation assay. Proliferation of bFGF-stimulated (10 nanogram per milliliter (ng/ml)) human umbilical vascular EC (HUVEC) cultures was measured by quantification of ^3H-thymidine incorporation. Proliferation is expressed as mean counts per minute (cpm) of quadruplicate cultures in three independent experiments (±SEM). EC were seeded at 5000 cells/well in flat-bottomed tissue culture plates and grown for 3 days in the absence or presence of regulators, in culture medium. During the last 6 hours of the assay, the culture was pulsed with 0.5 μCi [methyl-^3H]-thymidine/well. Human umbilical vein derived EC (HUVEC) were harvested from normal human umbilical cords by perfusion with 0.125% trypsin/EDTA. Harvested HUVECs were cultured in gelatin coated tissue culture flasks and subcultured 1:3 once a week in culture medium (RPMI-1640 with 20% human serum (HS), supplemented with 2 mM glutamine and 100 U/ml penicillin and 0.1 mg/ml streptomycin).

Question: SVQMKL-[DBF]-IIVKLND [6DBF7] was tested. Which “Number of apoptotic tumor cells” value ([1]; TUNEL, control 311±103) did it give?
Answer: 851±162

Question: What about the “Vessel density relative to control” value [1] of the same substance?
Answer: significantly reduced

Question: And the “End Points (mean number of vessel end points)” value [1]?
Answer: 21.7 ± 2.6 mean pixel counts per image

Question: What about the “Branch Points (mean number of vessel branch points/nodes per image)” value [1] of the same substance?
Answer: 2.3 ± 1.1 mean pixel counts per image

Question: What about the “Proliferation (PCNA-staining, white pixels per field)” value [1] of the same substance?
Answer: 501 ± 68 mean pixel counts per image

Question: What about the “Vessel Density (CD31-staining, white pixels per field)” value [1] of the same substance?
Answer: 2213 ± 256 mean pixel counts per image

Question: And the “Vessel Length (mean total vessel length per image)” value [1]?
Answer: 2.5 ± 0.4 mean pixel counts per image

Question: What about the “Effect on tube formation” value (bovine EC (BCE)) of the same substance?
Answer: significant inhibitory effect on tube formation

Question: And the “% Sprouting” value (bovine EC (BCE))?
Answer: 60 ± 12%*

Question: What about the “Sprouting in collagen gel-based sprout formation assay” value (bovine EC (BCE)) of the same substance?
Answer: highly reduced sprouting

Question: And the “Inhibition of tumor growth ten days post-treatment” value ([2]; intervention)?
Answer: about 50%

Question: What about the “EC Proliferation % Inhibition at 25 μM” value [3] of the same substance?
Answer: 68%

Question: What about the IC50 [3] of the same substance?
Answer: 15 µM

Question: With ANIKLSVQMKL-[DBF]-IIVKLN [11DBF6] as the substance, how does the IC50 [3] read?
Answer: 22 µM

Question: How did the “Vessel density relative to control” value [1] turn out when ANIKLSVQMKL-[DBF]-IIVKLND [11DBF7] was run?
Answer: significantly reduced

Question: What about the “End Points (mean number of vessel end points)” value [1] of the same substance?
Answer: 21.2 ± 3.3 mean pixel counts per image

Question: And the “Branch Points (mean number of vessel branch points/nodes per image)” value [1]?
Answer: 3.1 ± 0.9 mean pixel counts per image

Question: What about the “Proliferation (PCNA-staining, white pixels per field)” value [1] of the same substance?
Answer: 553 ± 75 mean pixel counts per image

Question: And the “Vessel Density (CD31-staining, white pixels per field)” value [1]?
Answer: 2879 ± 385 mean pixel counts per image

Question: What about the “Vessel Length (mean total vessel length per image)” value [1] of the same substance?
Answer: 3.0 ± 0.6 mean pixel counts per image

Question: What about the “% Sprouting” value (bovine EC (BCE)) of the same substance?
Answer: 23 ± 10%*

Question: And the “Sprouting in collagen gel-based sprout formation assay” value (bovine EC (BCE))?
Answer: highly reduced sprouting

Question: And the “Inhibition of tumor growth at the end of the four-week administration period (day 35)” value ([2]; intervention, day 35)?
Answer: about 50%

Question: What about the “Inhibition of tumor growth ten days post-treatment” value ([2]; intervention) of the same substance?
Answer: about 50%

Question: And the “Reduction of tumor volume relative to control animals” value ([2]; prevention model: treatment from time of inoculation, subcutaneous mini-pumps, 10 mg/kg/day)?
Answer: up to 90%

Question: What about the “EC Proliferation % Inhibition at 25 μM” value [3] of the same substance?
Answer: 92%

Question: What about the IC50 [3] of the same substance?
Answer: 12 µM

Question: With IKLSVQMKL-[DBF]-IIVKLND [9DBF7] as the substance, how does the “% Sprouting” value (bovine EC (BCE)) read?
Answer: 76 ± 40%*

Question: And the “EC Proliferation % Inhibition at 25 μM” value [3]?
Answer: 57%

Question: What about the IC50 [3] of the same substance?
Answer: 20 µM

Question: Which IC50 [3] does the source give for SVQMKL-[DBF]-II [6DBF2] here?
Answer: > 25 µM

Question: With QMKL-[DBF]-IIVKLND [4DBF7] as the substance, how does the “% Sprouting” value (bovine EC (BCE)) read?
Answer: 99 ± 5%

Question: What about the “EC Proliferation % Inhibition at 25 μM” value [3] of the same substance?
Answer: 46%

Question: What about the IC50 [3] of the same substance?
Answer: 25 µM

Question: What does the source list for NIKLSVQMKL-[DBF]-IIVKLND [10DBF7]?
Answer: % Sprouting (bovine EC (BCE)): 57 ± 17.5%*; EC Proliferation % Inhibition at 25 μM [3]: 69%; IC50 [3]: 12 µM

Question: Which IC50 [3] does the source give for SVQMKL-[DBF]-I [6DBF1] here?
Answer: 76.1 ± 10.9 µM

Question: How did the IC50 [3] turn out when SVQMKL-[DBF]-IIVK [6DBF4] was run?
Answer: > 25 µM

Question: For ANIKLSVQMKL-[DBF]-IIVK [11DBF4], which IC50 [3] is on record?
Answer: 35 µM

Question: For L-[DBF]-IIVKLND [1DBF7], which “% Sprouting” value (bovine EC (BCE)) is on record?
Answer: —

Question: And the “EC Proliferation % Inhibition at 25 μM” value [3]?
Answer: 0%

Question: What about the IC50 [3] of the same substance?
Answer: > 25 µM

Question: For MKL-[DBF]-IIVKLND [3DBF7], which “% Sprouting” value (bovine EC (BCE)) is on record?
Answer: 84 ± 30%

Question: What about the “EC Proliferation % Inhibition at 25 μM” value [3] of the same substance?
Answer: 0%

Question: What about the IC50 [3] of the same substance?
Answer: > 25 µM

Question: For ANIKLSVQMKL-[DBF]-I [11DBF1], which IC50 [3] is on record?
Answer: 23 ± 5 µM

Question: With SVQMKL-[DBF]-IIVKLN [6DBF6] as the substance, how does the IC50 [3] read?
Answer: 42 µM

Question: For SVQMKL-[DBF]-IIV [6DBF3], which IC50 [3] is on record?
Answer: > 25 µM
